# Test results published in BindingDB's records for doi:10.1021/jm030146j (Merck Research Laboratories, 2003).
# pIC50: −log10 of the molar value.
# Target: Integrin alpha-IIb/beta-3 (Homo sapiens, UniProt P08514+P05106)
# Assay: Inhibition of human alphaIIb-beta3 integrin in platelet aggregation assay
# Integrin alpha-IIb/beta-3, sequence (P05106 27-788 limits assumed): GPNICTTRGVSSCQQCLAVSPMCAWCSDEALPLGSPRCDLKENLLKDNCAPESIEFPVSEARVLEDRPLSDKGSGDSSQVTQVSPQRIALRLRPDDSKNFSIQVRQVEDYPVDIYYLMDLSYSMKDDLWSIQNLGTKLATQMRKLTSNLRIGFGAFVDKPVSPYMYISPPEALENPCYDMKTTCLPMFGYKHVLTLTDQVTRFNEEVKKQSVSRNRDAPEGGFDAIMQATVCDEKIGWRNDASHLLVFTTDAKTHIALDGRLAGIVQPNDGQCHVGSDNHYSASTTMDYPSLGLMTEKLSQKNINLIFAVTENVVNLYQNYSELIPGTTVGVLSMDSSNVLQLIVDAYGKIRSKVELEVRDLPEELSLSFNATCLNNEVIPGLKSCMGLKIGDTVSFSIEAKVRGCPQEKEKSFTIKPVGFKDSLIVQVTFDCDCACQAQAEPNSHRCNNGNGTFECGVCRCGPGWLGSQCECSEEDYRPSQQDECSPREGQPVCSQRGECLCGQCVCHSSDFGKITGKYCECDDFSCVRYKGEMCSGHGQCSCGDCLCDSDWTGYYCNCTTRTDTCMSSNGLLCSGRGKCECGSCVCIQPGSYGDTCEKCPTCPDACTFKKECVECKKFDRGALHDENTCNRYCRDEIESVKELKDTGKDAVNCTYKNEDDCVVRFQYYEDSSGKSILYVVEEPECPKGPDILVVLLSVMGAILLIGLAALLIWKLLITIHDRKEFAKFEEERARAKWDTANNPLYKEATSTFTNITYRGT
# Integrin alpha-IIb/beta-3, sequence (P08514 32-887 limits assumed): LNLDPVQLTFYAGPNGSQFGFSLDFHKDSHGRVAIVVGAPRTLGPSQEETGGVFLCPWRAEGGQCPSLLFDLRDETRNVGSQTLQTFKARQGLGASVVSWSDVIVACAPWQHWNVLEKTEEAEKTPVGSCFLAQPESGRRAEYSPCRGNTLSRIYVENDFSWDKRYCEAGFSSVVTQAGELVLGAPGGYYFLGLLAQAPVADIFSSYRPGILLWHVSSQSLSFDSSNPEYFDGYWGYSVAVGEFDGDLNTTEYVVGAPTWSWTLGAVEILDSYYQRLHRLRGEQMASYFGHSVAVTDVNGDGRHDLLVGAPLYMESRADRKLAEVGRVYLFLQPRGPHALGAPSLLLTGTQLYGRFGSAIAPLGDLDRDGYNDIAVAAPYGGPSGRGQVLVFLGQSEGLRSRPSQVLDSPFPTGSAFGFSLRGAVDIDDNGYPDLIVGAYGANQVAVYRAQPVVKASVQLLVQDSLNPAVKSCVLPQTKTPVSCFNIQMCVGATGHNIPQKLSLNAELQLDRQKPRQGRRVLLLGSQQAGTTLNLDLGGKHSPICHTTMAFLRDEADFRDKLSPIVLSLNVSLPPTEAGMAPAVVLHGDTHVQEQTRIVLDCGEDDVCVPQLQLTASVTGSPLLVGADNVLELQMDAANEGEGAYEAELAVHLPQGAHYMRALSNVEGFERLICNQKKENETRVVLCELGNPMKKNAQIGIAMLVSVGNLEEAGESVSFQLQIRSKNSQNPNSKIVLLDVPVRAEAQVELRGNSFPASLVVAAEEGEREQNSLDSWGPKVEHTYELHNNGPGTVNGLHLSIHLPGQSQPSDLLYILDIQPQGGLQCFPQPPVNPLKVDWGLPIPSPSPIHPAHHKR
# Integrin alpha-IIb/beta-3, sequence (P08514 891-1039 limits assumed): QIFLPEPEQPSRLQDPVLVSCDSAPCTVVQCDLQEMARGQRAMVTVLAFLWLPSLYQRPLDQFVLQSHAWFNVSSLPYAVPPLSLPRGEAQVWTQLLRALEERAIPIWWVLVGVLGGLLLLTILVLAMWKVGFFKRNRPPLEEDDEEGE
row,Structure (SMILES),pIC50
1,"CNc1cccc(CCOc2ccc3c(c2)CN(CC(F)(F)F)C(=O)[C@H](CC(=O)O)C3)n1 [[(S)-8-[2-(6-Methylamino-pyridin-2-yl)-ethoxy]-3-oxo-2-(2,2,2-trifluoro-ethyl)-2,3,4,5-tetrahydro-1H-benzo[c]azepin-4-yl]-acetic acid]",< 5.00
2,O=C(NC[C@H](NS(=O)(=O)c1ccccc1)C(=O)O)c1ccc(N2CCNCC2)cc1 [2-((S)-Benzenesulfonylamino)-3-(4-piperazin-1-yl-benzoylamino)-propionic acid],7.80
3,"O=C(O)CC(NC(=O)CCCCc1ccc2c(n1)NCCC2)c1cncnc1 (stereo not given) [3-Pyrimidin-5-yl-3-(5-5,6,7,8-tetrahydro-[1,8]naphthyridin-2-yl-pentanoylamino)-propionic acid]",< 5.00

# The next lines start with the values.
row,pIC50,Structure (SMILES)
1,6.80,"CC1(C)[C@@H]2CC[C@@]1(CS(=O)(=O)N[C@@H](CNC(=O)c1ccc(CCc3ccc4c(n3)NCCC4)cc1)C(=O)O)C(=O)C2 [2-((S)-(1R,7S)-7,7-Dimethyl-2-oxo-bicyclo[2.2.1]hept-1-ylmethanesulfonylamino)-3-{4-[2-(5,6,7,8-tetrahydro-[1,8]naphthyridin-2-yl)-ethyl]-benzoylamino}-propionic acid]"
2,< 5.00,"O=C(O)C[C@H](NC(=O)CN1CC[C@H](CCc2ccc3c(n2)NCCC3)C1=O)c1cccnc1 [3-(2-{(S)-2-Oxo-3-[2-(5,6,7,8-tetrahydro-[1,8]naphthyridin-2-yl)-ethyl]-pyrrolidin-1-yl}-acetylamino)-3-(S)-pyridin-3-yl-propionic acid]"
